± gives the expanded uncertainty stated by the source.
Assay: wn = mass fraction of the nth substance listed
Conditions: 298.15 K, 101 kPa, Liquid; for viscosity: Capillary tube (Ostwald / Ubbelohde) method; for mass density: Pycnometric method

Row | viscosity (w1 = 0.1) [mPa·s] | viscosity (w1 = 0.2) [mPa·s] | viscosity (w1 = 0.3) [mPa·s] | viscosity (w1 = 1) [mPa·s] | mass density (w1 = 0.1) [kg/m3] | mass density (w1 = 0.2) [kg/m3] | mass density (w1 = 0.3) [kg/m3] | mass density (w1 = 1) [kg/m3] | viscosity (w2 = 0) [mPa·s] | mass density (w2 = 0) [kg/m3] | SMILES
1 | 0.49 ± 0.014 | 0.51 ± 0.014 | 0.53 ± 0.015 | 1.2 ± 0.031 | 894.1 ± 4.5 | 907.1 ± 4.6 | 919 ± 4.8 | 1030.5 ± 6 | – | – | C1COCCO1 [1,4-dioxane] + C1CCOC1
2 | – | – | – | – | – | – | – | – | 0.463 ± 0.013 | 880.7 ± 4.4 | C1CCOC1 [tetrahydrofuran] + C1COCCO1

— the NIST ThermoML archive (doi:10.1021/je7004787)
